From PubChem BioAssay AID328 (DTP/NCI, 2004)
“And” between values parts separate entries of the source, which are not always exact repeats. Equal values may be shown once. Inconclusive results and toxic doses are left out.

Tested on: BDF1 mice, P388 leukemia ip, median survival T/C
Assay: NCI In Vivo Anticancer Drug Screen. Data for tumor model P388 Leukemia (intraperitoneal) in B6D2F1 (BDF1) mice
Settings: endpoint: median survival time, higher = longer survival
Procedure, shortened: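 Compound-treated tumour-bearing mice were compared with vehicle-treated controls. Survival was recorded, and the value is the treated-group measurement divided by the control-group measurement (T/C).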

[1] = dose: 12.5 mg/kg/injection, schedule: Q01DX009 (ip), vehicle: saline
[2] = dose: 100.0 mg/kg/injection, schedule: Q01DX009 (ip), vehicle: saline with Tween-80
[3] = dose: 200.0 mg/kg/injection, schedule: Q01DX009 (ip), vehicle: saline with Tween-80
[4] = dose: 400.0 mg/kg/injection, schedule: Q01DX009 (ip), vehicle: saline with Tween-80
[5] = dose: 100.0 mg/kg/injection, schedule: Q04DX003 (ip), vehicle: saline with Tween-80
[6] = dose: 100.0 mg/kg/injection, schedule: Q01DX001 (ip), vehicle: Klucel (hydroxypropylcellulose) (HPC)
[7] = dose: 50.0 mg/kg/injection, schedule: Q01DX009 (ip), vehicle: saline with Tween-80
[8] = dose: 100.0 mg/kg/injection, schedule: Q01DX009 (ip), vehicle: saline
[9] = dose: 50.0 mg/kg/injection, schedule: Q04DX003 (ip), vehicle: saline with Tween-80

`N=C(N)c1cn(C2OC(CO)C(O)C2O)c2ncnc(N)c12` (stereo not drawn) was tested, and the T/C (dose: 0.44 mg/kg/injection, schedule: Q01DX009 (ip), vehicle: saline) was 156 % of control, the T/C (dose: 0.44 mg/kg/injection, schedule: Q04DX003 (ip), vehicle: saline) was 102 % of control and the T/C (dose: 0.66 mg/kg/injection, schedule: Q01DX009 (ip), vehicle: saline) was 164 % of control. For the same compound, the T/C (dose: 0.66 mg/kg/injection, schedule: Q04DX003 (ip), vehicle: saline) was 109 % of control, the T/C (dose: 1.0 mg/kg/injection, schedule: Q01DX009 (ip), vehicle: Klucel (hydroxypropylcellulose) (HPC)) was 160 % of control and the T/C (dose: 1.0 mg/kg/injection, schedule: Q01DX009 (ip), vehicle: saline) was 162 % of control. For the same compound, the T/C (dose: 1.0 mg/kg/injection, schedule: Q04DX003 (ip), vehicle: saline) was 100 % of control, the T/C (dose: 1.5 mg/kg/injection, schedule: Q01DX009 (ip), vehicle: saline) was 173 % of control and the T/C (dose: 3.13 mg/kg/injection, schedule: Q01DX009 (ip), vehicle: saline) was 202 % of control. The T/C (dose: 6.25 mg/kg/injection, schedule: Q04DX003 (ip), vehicle: saline) was 154 % of control, the T/C (dose: 8.0 mg/kg/injection, schedule: Q01DX009 (ip), vehicle: Klucel (hydroxypropylcellulose) (HPC)) was 90 % of control and 105 % of control and the T/C [1] was 86 % of control. For the same compound, the T/C (dose: 12.5 mg/kg/injection, schedule: Q04DX003 (ip), vehicle: saline) was 177 % of control, the T/C (dose: 16.5 mg/kg/injection, schedule: Q04DX003 (ip), vehicle: saline) was 159 % of control and 181 % of control and the T/C (dose: 25.0 mg/kg/injection, schedule: Q04DX003 (ip), vehicle: saline) was 181 % of control and 190 % of control. The T/C (dose: 37.5 mg/kg/injection, schedule: Q04DX003 (ip), vehicle: saline) was 181 % of control.
`COc1ccc2c(c1)CC[C@@H]1[C@@H]2CC[C@]2(C)/C(=N\O)CC[C@@H]12` was tested, and the T/C [2] was 104 % of control, the T/C [3] was 109 % of control and the T/C [4] was 90 % of control.
In the case of `Cc1nc(-c2ccc(N=Cc3ccc(N(CCOS(C)(=O)=O)CCOS(C)(=O)=O)cc3C)cc2)cs1`, the T/C (dose: 11.0 mg/kg/injection, schedule: Q01DX009 (ip), vehicle: Klucel (hydroxypropylcellulose) (HPC)) is reported as 247 % of control, the T/C (dose: 16.5 mg/kg/injection, schedule: Q01DX009 (ip), vehicle: Klucel (hydroxypropylcellulose) (HPC)) is reported as 277 % of control and 176 % of control and the T/C (dose: 24.75 mg/kg/injection, schedule: Q01DX009 (ip), vehicle: Klucel (hydroxypropylcellulose) (HPC)) is reported as 108 % of control. For the same compound, the T/C (dose: 25.0 mg/kg/injection, schedule: Q01DX009 (ip), vehicle: Klucel (hydroxypropylcellulose) (HPC)) was 111 % of control.
For `Cc1ncc2c[n+]([O-])ccn12`, the T/C (dose: 50.0 mg/kg/injection, schedule: Q04DX003 (ip), vehicle: saline) was 100 % of control, the T/C (dose: 100.0 mg/kg/injection, schedule: Q04DX003 (ip), vehicle: saline) was 100 % of control and the T/C (dose: 200.0 mg/kg/injection, schedule: Q04DX003 (ip), vehicle: saline) was 90 % of control.
In the case of `CCCCCCCCSc1ncnc2nc[nH]c12`, the T/C [2] is reported as 108 % of control, the T/C [5] is reported as 100 % of control and the T/C [3] is reported as 87 % of control. For the same compound, the T/C (dose: 200.0 mg/kg/injection, schedule: Q04DX003 (ip), vehicle: saline with Tween-80) was 100 % of control, the T/C [4] was 108 % of control and the T/C (dose: 400.0 mg/kg/injection, schedule: Q04DX003 (ip), vehicle: saline with Tween-80) was 100 % of control.
`COc1ccccc1Oc1ccc(N=Cc2ccc(C)cc2)cc1` was tested, and the T/C (dose: 12.0 mg/kg/injection, schedule: Q01DX001 (ip), vehicle: Klucel (hydroxypropylcellulose) (HPC)) was 100 % of control, the T/C (dose: 25.0 mg/kg/injection, schedule: Q01DX001 (ip), vehicle: Klucel (hydroxypropylcellulose) (HPC)) was 104 % of control and the T/C (dose: 50.0 mg/kg/injection, schedule: Q01DX001 (ip), vehicle: Klucel (hydroxypropylcellulose) (HPC)) was 95 % of control. The T/C [6] was 100 % of control.
For `Nc1ccc(OS(=O)(=O)c2ccccc2)cc1`, the T/C [7] was 98 % of control, the T/C [2] was 108 % of control and the T/C [3] was 100 % of control. For the same compound, the T/C [4] was 90 % of control.
For `CCOC(=S)S`, the T/C [8] was 100 % of control and the T/C (dose: 200.0 mg/kg/injection, schedule: Q01DX009 (ip), vehicle: saline) was 95 % of control.
With `O=c1oc2c(c(N(c3ccccc3)c3ccccc3)c1Cl)CSc1ccccc1-2` the T/C (dose: 25.0 mg/kg/injection, schedule: Q04DX003 (ip), vehicle: saline with Tween-80) was 100 % of control, the T/C [9] was 93 % of control and the T/C [5] was 90 % of control.
For `O=C1OC2CC=CCC2CC1O` (stereo not drawn), the T/C [1] was 92 % of control, the T/C (dose: 25.0 mg/kg/injection, schedule: Q01DX009 (ip), vehicle: saline) was 96 % of control and the T/C (dose: 50.0 mg/kg/injection, schedule: Q01DX009 (ip), vehicle: saline) was 102 % of control. For the same compound, the T/C [8] was 102 % of control.
With `CN(C)c1ccc(C(=C2C=CC(=[N+](C)C)C=C2)c2ccccc2Cl)cc1` the T/C (dose: 5.0 mg/kg/injection, schedule: Q01DX010 (ip), vehicle: saline) was 110 % of control.
`OCC1OC(n2cnc3c(SSc4ncnc5c4ncn5C4OC(CO)C(O)C4O)ncnc32)C(O)C1O` (stereo not drawn) was tested, and the T/C (dose: 118.0 mg/kg/injection, schedule: Q01DX010 (ip), vehicle: saline) was 104 % of control and the T/C (dose: 178.0 mg/kg/injection, schedule: Q01DX010 (ip), vehicle: saline) was 104 % of control.
In the case of `N#Cc1nnc2cc[nH]n2c1=O`, the T/C (dose: 100.0 mg/kg/injection, schedule: Q04DX002 (ip), vehicle: saline with Tween-80) is reported as 100 % of control, the T/C (dose: 200.0 mg/kg/injection, schedule: Q04DX002 (ip), vehicle: saline with Tween-80) is reported as 103 % of control and the T/C (dose: 400.0 mg/kg/injection, schedule: Q04DX002 (ip), vehicle: saline with Tween-80) is reported as 109 % of control.
`O=C(CCCC(O)(C1CC1)C1CC1)C1CC1` was tested, and the T/C (dose: 100.0 mg/kg/injection, schedule: Q01DX009 (ip), vehicle: Klucel (hydroxypropylcellulose) (HPC)) was 100 % of control and the T/C (dose: 200.0 mg/kg/injection, schedule: Q01DX009 (ip), vehicle: Klucel (hydroxypropylcellulose) (HPC)) was 115 % of control.
With `Clc1ccc(N=Cc2ccc(C=Nc3ccc(Cl)c(Cl)c3)cc2)cc1Cl` the T/C (dose: 100.0 mg/kg/injection, schedule: Q04DX003 (ip), vehicle: Klucel (hydroxypropylcellulose) (HPC)) was 100 % of control, the T/C (dose: 200.0 mg/kg/injection, schedule: Q04DX003 (ip), vehicle: Klucel (hydroxypropylcellulose) (HPC)) was 90 % of control and the T/C (dose: 400.0 mg/kg/injection, schedule: Q04DX003 (ip), vehicle: Klucel (hydroxypropylcellulose) (HPC)) was 100 % of control.
`CCCCCCCCCCCSCCCCCCCCCCC` was tested, and the T/C [2] was 100 % of control, the T/C [3] was 100 % of control and the T/C [4] was 100 % of control.
For `CCCCCCCCCCCC[N+](C)(C)Cc1ccccc1`, the T/C (dose: 0.43 mg/kg/injection, schedule: Q04DX003 (ip), vehicle: saline) was 90 % of control, the T/C (dose: 0.78 mg/kg/injection, schedule: Q01DX009 (ip), vehicle: saline) was 109 % of control and the T/C (dose: 0.87 mg/kg/injection, schedule: Q04DX003 (ip), vehicle: saline) was 100 % of control. The T/C (dose: 1.56 mg/kg/injection, schedule: Q01DX009 (ip), vehicle: saline) was 109 % of control, the T/C (dose: 1.75 mg/kg/injection, schedule: Q04DX003 (ip), vehicle: saline) was 100 % of control and the T/C (dose: 2.05 mg/kg/injection, schedule: Q01DX009 (ip), vehicle: saline) was 161 % of control. For the same compound, the T/C (dose: 3.5 mg/kg/injection, schedule: Q04DX003 (ip), vehicle: saline) was 109 % of control.
With `S=C1SCN(Cc2ccccc2)CN1Cc1ccccc1` the T/C [6] was 113 % of control, the T/C (dose: 200.0 mg/kg/injection, schedule: Q01DX001 (ip), vehicle: Klucel (hydroxypropylcellulose) (HPC)) was 100 % of control and the T/C (dose: 400.0 mg/kg/injection, schedule: Q01DX001 (ip), vehicle: Klucel (hydroxypropylcellulose) (HPC)) was 100 % of control.
`NC(=S)N/N=C/c1ccc2c(c1)OCO2` was tested, and the T/C [9] was 95 % of control and the T/C [5] was 100 % of control.
In the case of `O=C(COC1CCCCC1)OC1CCCCC1`, the T/C (dose: 25.0 mg/kg/injection, schedule: Q01DX009 (ip), vehicle: saline with Tween-80) is reported as 100 % of control, the T/C [7] is reported as 113 % of control and the T/C [2] is reported as 118 % of control.
